Tests used:
JNK = JNK phosphorylation in RAW cells, immunoblot; format: cell-based; settings: 40 μM peptide
Protocol: (§1) FIG. 5, comprising FIGS. 5A through 5D, is a series of blots depicting inhibition of LPS- but not CpG-induced NF-κB activation, PKR phosphorylation, and JNK phosphorylation by TIRAP. (A) TIRAP peptide, but not a reverse sequence peptide, inhibited LPS-induced NF-κB activation. RAW κB cells pretreated for 1 h with either the TIRAP or control peptide were stimulated with LPS (10 ng/ml) for 5 h. Samples were stimulated in duplicate. (B) Pretreatment of RAW cells with TIRAP peptide blocks LPS-induced IκB-α degradation. RAW cells pretreated with the TIRAP peptide as indicated were either left unstimulated or stimulated with LPS (10 ng/ml) for the indicated time periods. […] Lysates (30 μg/sample) were analyzed by SDS-PAGE followed by immunoblotting with antibodies that specifically recognize phosphorylated PKR or phosphorylated JNK.
(§2) To determine whether a TIRAP mutant peptide inhibits PKR and JNK phosphorylation induced by LPS or CpG, RAW cells either untreated or pretreated with 40 μM of the TIRAP peptide were either left unstimulated or stimulated with either LPS (10 ng/ml) or CpG (10 μM) for the indicated time periods before harvest and lysis. Lysates (30 μg/sample) were analyzed by SDS-PAGE followed by immunoblotting with antibodies that specifically recognize phosphorylated PKR and JNK.

PKR = PKR phosphorylation in RAW cells, immunoblot; format: cell-based; settings: 40 μM peptide
Protocol: as §1, §2

IL-12 = IL-12 production by dendritic cells; format: cell-based, mice; settings: DCs
Protocol: (§3) (A) Wild-type and MyD88^−/− dendritic cells (DCs) were induced with LPS or CpG and analyzed for expression of the costimulatory molecules B7.1 and […] flow cytometry. (B) Production of the cytokines, IL-12 and IL-6, was measured in cells that were untreated (none) or treated with LPS or CpG in the presence or absence of TIRAP peptide. (C) T cell proliferation was measured in wild-type DCs that were untreated (none), treated with LPS alone (LPS), or treated with LPS in the presence of increasing amounts of TIRAP peptide (LPS+TIRAP peptide). T cell proliferation was measured by incorporation of ^3H-thymidine into cells, expressed as cpm×10^3.
(§4) To determine the effects of the TIRAP peptide on cytokine production, DCs were treated with or without TIRAP peptide prior to stimulation with LPS or CpG (as described above), and the production of IL-12 and IL-6 was measured. Addition of TIRAP peptide inhibited production of IL-12 and IL-6 cytokines in response to stimulation with LPS, but not CpG (FIG. 6B).

IL-6 = IL-6 production by dendritic cells; format: cell-based, mice; settings: DCs
Protocol: as §3, §4

IκB-α = IκB-α degradation in RAW cells, immunoblot; format: cell-based
Protocol: (§5) FIG. 5, comprising FIGS. 5A through 5D, is a series of blots depicting inhibition of LPS- but not CpG-induced NF-κB activation, PKR phosphorylation, and JNK phosphorylation by TIRAP. (A) TIRAP peptide, but not a reverse sequence peptide, inhibited LPS-induced NF-κB activation. RAW κB cells pretreated for 1 h with either the TIRAP or control peptide were stimulated with LPS (10 ng/ml) for 5 h. Samples were stimulated in duplicate. (B) Pretreatment of RAW cells with TIRAP peptide blocks LPS-induced IκB-α degradation. RAW cells pretreated with the TIRAP peptide as indicated were either left unstimulated or stimulated with LPS (10 ng/ml) for the indicated time periods. Lysates (30 μg/sample) were resolved by SDS-PAGE followed by immunoblotting with an anti-IκB-α antibody to assess IκB-α degradation. (C) TIRAP peptide inhibited LPS- but not CpG-induced NF-κB activity. RAW κB cells pretreated with the TIRAP peptide as indicated were stimulated with either LPS or CpG and harvested for reporter assay. (D) TIRAP peptide inhibited PKR and JNK phosphorylation induced by LPS but not CpG. RAW cells either untreated or pretreated with 40 μM of the TIRAP peptide were stimulated with either LPS or CpG as indicated. Lysates (30 μg/sample) were analyzed by SDS-PAGE followed by immunoblotting with antibodies that specifically recognize phosphorylated PKR or phosphorylated JNK. […]

NF-κB = experiment: NF-κB-dependent luciferase reporter assay in RAW κB macrophage cell line; format: cell-based; settings: RAW κB cells
Protocol: as §5

[1] = test system: 1H3.1 TCR transgenic T cells; experiment: CD4 T cell proliferation stimulated by DCs, 3H-thymidine incorporation; format: cell-based; settings: DCs from wild-type or MyD88-deficient mice, LPS, Eα peptide, 48 h culture
Protocol: as §3
Lastly, the effect of TIRAP peptide on T cell proliferation was evaluated. Stimulation of CD4 T cell proliferation by DCs treated with or without TIRAP peptide prior to stimulation with LPS was performed in the presence of varying concentrations of Eα peptide. DCs were fixed prior to incubation with 1H3.1 TCR transgenic T cells (specific for Eα peptide bound to I-A). Proliferation was measured by ^3H-thymidine incorporation for the last 24 h of a 48 h culture.

dendritic cells (DCs) = experiment: Dendritic cell maturation, flow cytometry of costimulatory molecules B7.1 and B7.2; format: cell-based, mice; settings: peptide 10 μM
Protocol: as §3
In view of the important role for TIRAP in mediating LPS-responsiveness in macrophages, the role of TIRAP in LPS-induced DC maturation was investigated. TIRAP is likely to be critical in these events because MyD88-deficient DCs retain the ability to upregulate costimulatory molecules in response to LPS stimulation (Kaisho 2001). To determine the effect of TIRAP on the expression of the costimulatory molecules B7.1 and B7.2, flow cytometry was performed on wild type and MyD88-/-DC. DCs were either unstimulated (shaded), stimulated with LPS (10 ng/ml) or CpG (10 μM) (black line), or pretreated with TIRAP peptide (10 μM) prior to stimulation with LPS or CpG (dashed line). […]

TIRAP peptide: synthetic peptide corresponding to the P125 region of mTIRAP linked to the C-terminus of a peptide derived from antennapedia (RQIKIWFQNRRMKWKKLQLRDAAPGGAIVS; TIRAP/Antennapedia fusion protein)
inhibition of JNK phosphorylation induced by CpG (JNK; CpG): not CpG | inhibition of JNK phosphorylation induced by LPS (JNK; LPS): inhibited | inhibition of PKR phosphorylation induced by CpG (PKR; CpG 10 μM): not CpG | inhibition of PKR phosphorylation induced by LPS (PKR; LPS 10 ng/ml): inhibited | production of IL-12 in response to CpG (IL-12; peptide before CpG stimulation): not CpG | production of IL-12 in response to LPS (IL-12; peptide before LPS stimulation): inhibited | production of IL-6 in response to CpG (IL-6; peptide before CpG stimulation): not CpG | production of IL-6 in response to LPS (IL-6; peptide before LPS stimulation): inhibited | LPS-induced IκB-α degradation (IκB-α; 1 hour pretreatment with 40 μM peptide, LPS 10 ng/ml): did not induce IκB-α degradation | inhibition of CpG-induced IκB-α degradation (IκB-α; CpG): did not inhibit | inhibition of LPS-induced NF-κB activation (NF-κB; 1 hour pretreatment, LPS 10 ng/ml 5 hours, TIRAP peptide 50 μM): potently inhibited | inhibition of CpG-induced NF-κB activation (NF-κB; CpG 10 μM 5 hours): did not inhibit | T cell proliferation induced by peptide-treated DCs [1]: unable to induce T cell proliferation | CpG-induced DC maturation (dendritic cells (DCs); DCs, CpG 10 μM): no effect | LPS-induced upregulation of B7.1 and B7.2 molecules (dendritic cells (DCs); wild-type and MyD88-deficient DCs, LPS 10 ng/ml): abolished
